Source: ChEMBL document CHEMBL1138865, “2-substituted estradiol bis-sulfamates, multitargeted antitumor agents: synthesis, in vitro SAR, protein crystallography, and in vivo activity” (J Med Chem, 2006)

Tests used:
SF-539 = assay: Growth inhibition of human SF539 cell line; assay type: functional
DU-145 = assay: Growth inhibition of human DU145 cell line; assay type: functional
OVCAR-3 = assay: Growth inhibition of human OVCAR-3 cell line; assay type: functional
HOP-62 = assay: Growth inhibition of human HOP62 cell line; assay type: functional
UACC-62 = assay: Growth inhibition of human UACC62 cell line; assay type: functional
HCT-116 = assay: Growth inhibition of human HCT116 cell line; assay type: functional
SN12C = assay: Growth inhibition of human SN12-C cell line; assay type: functional
MCF7 [1] = assay: Antiproliferative activity against human MCF7 cell line; assay type: functional
MDA-MB-435 = assay: Growth inhibition of human MDA-MB-435 cell line; assay type: functional
[2] = molecular target: T1, Steryl-sulfatase (Homo sapiens) (UniProt P08842); assay: Inhibition of STS in placental microsomes at 10 uM by radiometric assay; conditions: Placenta
T1 sequence (whole entry): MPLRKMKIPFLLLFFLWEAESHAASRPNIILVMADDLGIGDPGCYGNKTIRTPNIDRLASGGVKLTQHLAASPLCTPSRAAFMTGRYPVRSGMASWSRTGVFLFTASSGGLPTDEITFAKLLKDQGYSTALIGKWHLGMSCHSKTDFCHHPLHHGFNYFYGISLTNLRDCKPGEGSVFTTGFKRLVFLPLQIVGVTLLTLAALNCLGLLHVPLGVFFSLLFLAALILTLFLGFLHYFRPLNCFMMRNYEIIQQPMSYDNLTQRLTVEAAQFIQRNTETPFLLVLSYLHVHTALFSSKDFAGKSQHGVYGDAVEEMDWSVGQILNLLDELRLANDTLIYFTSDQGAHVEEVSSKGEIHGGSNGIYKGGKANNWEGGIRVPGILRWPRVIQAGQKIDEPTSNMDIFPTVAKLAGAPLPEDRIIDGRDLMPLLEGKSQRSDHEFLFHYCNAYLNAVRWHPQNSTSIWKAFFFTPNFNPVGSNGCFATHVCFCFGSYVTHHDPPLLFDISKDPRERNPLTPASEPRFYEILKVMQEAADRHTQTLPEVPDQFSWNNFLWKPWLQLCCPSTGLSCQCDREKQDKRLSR

Steryl-sulfatase = molecular target: T2, Steryl-sulfatase (Homo sapiens, UniProt P08842); assay: Inhibition of STS in placental microsomes by radiometric assay; design: species or system Placenta
T2 sequence (P08842 whole entry): T1 sequence (whole entry)

MCF7 [3] = assay: Antiproliferative activity against human MCF7 cell line at 10 uM; assay type: functional

SMILES	GI50 (SF-539) [µM]	GI50 (DU-145) [µM]	GI50 (OVCAR-3) [µM]	GI50 (HOP-62) [µM]	GI50 (UACC-62) [µM]	GI50 (HCT-116) [µM]	GI50 (SN12C) [µM]	GI50 (MCF7 [1]) [µM]	GI50 (MDA-MB-435) [µM]	inhibition [2] [%]	other results
CCOc1cc2c(cc1OS(N)(=O)=O)CC[C@@H]1[C@@H]2CC[C@]2(C)[C@@H](OS(N)(=O)=O)CC[C@@H]12	6.5	2.7	15.6	1.3	1.8	2.3	7.2	10	34.5		
CC(=O)NS(=O)(=O)O[C@H]1CC[C@H]2[C@@H]3CCc4cc(O)ccc4[C@H]3CC[C@]12C										31	
CN(C)S(=O)(=O)O[C@H]1CC[C@H]2[C@@H]3CCc4cc(O)ccc4[C@H]3CC[C@]12C										8.7	
C[C@]12CC[C@@H]3c4ccc(OS(N)(=O)=O)cc4CC[C@H]3[C@@H]1CC[C@@H]2OS(N)(=O)=O	12.4	38.7	18.1	23.5	17.4	18.7	22.8	> 10	16.6		IC50 (Steryl-sulfatase): 0.018 µM; inhibition at 10 µM (MCF7 [3]): 32%
CCc1cc2c(cc1O)CC[C@@H]1[C@@H]2CC[C@]2(C)[C@@H](OS(N)(=O)=O)CC[C@@H]12								> 10			
COc1cc2c(cc1OS(=O)(=O)N(C)C)CC[C@@H]1[C@@H]2CC[C@]2(C)[C@@H](OS(=O)(=O)N(C)C)CC[C@@H]12								> 100			
C[C@]12CC[C@@H]3c4ccc(O)cc4CC[C@H]3[C@@H]1CC[C@@H]2OS(=O)(=O)N(Cc1ccccc1)Cc1ccccc1										1.4	
C[C@]12CC[C@@H]3c4ccc(OS(N)(=O)=O)cc4CC[C@H]3[C@@H]1CC[C@@H]2OS(=O)(=O)N(Cc1ccccc1)Cc1ccccc1	2.44	3.42	10.8	2.41	2.39	10.5	7.53		4.57	38.2	
C[C@]12CC[C@@H]3c4ccc(OS(N)(=O)=O)cc4CC[C@H]3[C@@H]1CC[C@@H]2O [E2MATE]											IC50 (Steryl-sulfatase): 0.016 µM
COc1cc2c(cc1O)CC[C@@H]1[C@@H]2CC[C@]2(C)[C@@H](OS(N)(=O)=O)CC[C@@H]12	4.81	18.3	2.5	15	4.2	3.82	11.8	> 10	0.646		
COc1cc2c(cc1OS(N)(=O)=O)CC[C@@H]1[C@@H]2CC[C@]2(C)[C@@H](OS(=O)(=O)N(C)C)CC[C@@H]12								> 10			
